Experimental data from patent publication EP4763847A1 (Jiangsu Yahong Meditech Co., Ltd., priority 2023, dated 2025).
Like-named read-outs stand apart in the source and are kept apart here.

Columns and labels:
HCT116 MTAP KO = experiment: Cell proliferation inhibition (CellTiter Glo), HCT116 MTAP KO cells; assay type: cell-based; conditions: cultured 6 days with compound
Method: (§1) Test Example 2: Test of cell proliferation inhibition activity of the compounds
(§2) HCT116-WT (ATCC, CCL-247) and HCT116 MTAP KO (Cobioer Nanjing, CBP75002) cells were seeded into white low-transparency 96-well sterile cell culture plates at a density of 250 cells per well, respectively. The culture medium was McCoy's 5A Medium + 10% FBS. The plates were incubated overnight at 37°C with 5% CO2. The cells were treated with compounds gradiently with an initial concentration of 10000 nM, 4-fold dilution, and 8 concentration points. The last two columns were control wells with only DMSO added. The treated cells were continued to be cultured for 6 days. On the seventh day, 50 µL of CellTiter Glo® reagent was added to each well. After reacting on a shaker at room temperature for 10 minutes, the chemiluminescence signal in the plate was detected using the chemiluminescence detection method on a BIOTEK H1 multi-mode plate reader. […] Table 2: IC50 values of compounds for HCT116 MTAP KO/WT cell growth inhibition

PRMT5-MTA [1] = molecular target: T1, PRMT5-MTA (Homo sapiens, UniProt O14744); conditions: PRMT5+MTA enzyme activity inhibition; PRMT5/MET50 protein 1 nM, 5'-deoxy-5'-adenosine 1 µM, SAM 2.5 µM, Histone H4 substrate 5 nM
Method: (§3) The enzymatic inhibition activity of the compounds against PRMT5-MTA was detected using the AlphaScreen method. A 1× methyltransferase assay buffer IV (Signalchem) was prepared as a dilution solution for each component of the enzymatic reaction. […] The test compounds were added to all wells except the control wells in a 3-fold dilution series of 10 concentration points starting from 1000 nM using a Tecan D300e. After centrifugation at 1000 rpm for 1 minute in a centrifuge, the plate was incubated at 23°C for 15 minutes. Histone H4 substrate at a final concentration of 5 nM was added to the plate at 4 µL per well. After centrifugation at 1000 rpm for 1 minute in a centrifuge, the plate was reacted in an incubator at 23°C for 45 minutes. Anti-Histone H4 (symmetric dimethyl R3) antibody (Abcam) was pre-incubated with 50 µg/mL AlphaScreen Protein A Acceptor beads (PerkinElmer) at room temperature for 10 minutes, and then added to the plate in a volume of 10 µL per well, followed by reaction at room temperature for 1 hour. 10 µL of 50 µg/mL AlphaScreen Streptavidin Donor beads (PerkinElmer) were added to each well, and reacted at room temperature for 1 hour. The signal values in the plate were detected using the Alpha method on an Envision multi-mode plate reader. The IC50 values of the compounds for PRMT5/MET50 enzyme activity inhibition were calculated in Xlfit 5.0 software.

HCT116-WT = experiment: Cell proliferation inhibition (CellTiter Glo), HCT116-WT cells; assay type: cell-based; conditions: cultured 6 days with compound
Method: as §1, §2

PRMT5-MTA [2] = molecular target: T1, PRMT5-MTA; experiment: biochemical; conditions: IC50 (nM), PRMT5+MTA enzyme activity inhibition; PRMT5/MET50 protein 1 nM, 5'-deoxy-5'-adenosine 1 µM, SAM 2.5 µM, Histone H4 substrate 5 nM
Method: as §3

T1 sequence (O14744 whole entry): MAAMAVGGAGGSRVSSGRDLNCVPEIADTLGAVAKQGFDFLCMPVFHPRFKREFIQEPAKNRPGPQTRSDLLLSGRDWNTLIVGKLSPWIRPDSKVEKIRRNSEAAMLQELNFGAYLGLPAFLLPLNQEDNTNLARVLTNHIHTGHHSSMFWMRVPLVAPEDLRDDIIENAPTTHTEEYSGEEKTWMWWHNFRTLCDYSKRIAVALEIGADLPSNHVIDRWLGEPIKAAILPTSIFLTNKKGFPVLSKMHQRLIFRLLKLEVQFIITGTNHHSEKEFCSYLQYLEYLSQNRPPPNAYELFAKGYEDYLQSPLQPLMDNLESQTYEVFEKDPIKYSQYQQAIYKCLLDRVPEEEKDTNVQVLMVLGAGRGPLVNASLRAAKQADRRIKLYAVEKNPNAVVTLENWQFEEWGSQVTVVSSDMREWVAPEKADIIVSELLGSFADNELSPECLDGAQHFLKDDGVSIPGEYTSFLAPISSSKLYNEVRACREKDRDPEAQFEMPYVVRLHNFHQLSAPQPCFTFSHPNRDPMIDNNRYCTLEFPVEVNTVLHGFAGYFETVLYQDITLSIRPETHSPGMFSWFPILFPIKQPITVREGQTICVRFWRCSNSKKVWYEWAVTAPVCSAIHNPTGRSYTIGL
T1 sequence (Q9BQA1 whole entry partner): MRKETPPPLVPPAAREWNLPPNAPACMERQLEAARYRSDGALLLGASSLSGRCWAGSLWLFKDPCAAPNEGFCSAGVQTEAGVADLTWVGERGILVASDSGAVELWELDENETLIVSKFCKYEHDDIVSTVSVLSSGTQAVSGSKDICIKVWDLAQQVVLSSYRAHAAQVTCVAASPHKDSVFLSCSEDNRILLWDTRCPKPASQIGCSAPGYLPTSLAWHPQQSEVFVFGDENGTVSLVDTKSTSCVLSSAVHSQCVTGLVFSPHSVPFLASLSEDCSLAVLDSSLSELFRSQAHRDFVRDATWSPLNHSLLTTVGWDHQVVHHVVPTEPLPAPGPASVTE

Compound | IC50 (PRMT5-MTA [2]) | IC50 (HCT116 MTAP KO; Homo sapiens, HCT-116, 144 h) | IC50 (HCT116-WT; 144 h) | IC50 (HCT116 MTAP KO) | IC50 (PRMT5-MTA [1]) | IC50 (HCT116-WT)
6-((isobutyrylamido(methylamino)methylene)amino)-N-(1-(pyrimidin-2-yl)ethyl)-N-((5 -(trifluoromethyl)pyridin-2-yl)methyl)nicotinamide [Compound 29] | – | – | – | 590 nM | 8.2 nM | 3730 nM
CNC(N)=Nc1ccc(C(=O)N(Cc2ccc3cnccc3c2)[C@H](C)c2ccccc2F)cn1 [Compound 98] | 8.7 nM | 64 nM | 1090 nM | – | – | –
CNC(N)=Nc1ccc(C(=O)N(Cc2ccc(C)nc2)[C@H](C)c2ccccc2F)cn1 [Compound 109] | 5.8 nM | 658 nM | 7720 nM | – | – | –
CN/C(N)=N\c1ccc(C(=O)N(Cc2ccc(C(F)(F)F)cn2)C(C)c2ncccc2F)cn1 (single isomer, unassigned) [Compound 65] | 5.4 nM | 30 nM | 569 nM | – | – | –
CNC(N)=Nc1ccc(C(=O)N(Cc2ccc3sc(C4CCN(C)CC4)nc3c2)[C@H](C)c2ccccc2F)cn1 [Compound 79] | 3.1 nM | 782 nM | 3440 nM | – | – | –
CNC(N)=Nc1ccc(C(=O)N(Cc2cscn2)[C@H](C)c2ccccc2F)cn1 [Compound 104] | 5.8 nM | 416 nM | > 10000 nM | – | – | –
CNC(N)=Nc1ccc(C(=O)N(Cc2ccc3ccsc3c2)[C@H](C)c2ccccc2F)cn1 [Compound 105] | 5.7 nM | 263 nM | 2230 nM | – | – | –

Now from value to compound, other results behind:

IC50 (PRMT5-MTA [2]) | IC50 (HCT116 MTAP KO; Homo sapiens, HCT-116, 144 h) | IC50 (HCT116-WT; 144 h) | Compound | IC50 (HCT116 MTAP KO) | IC50 (PRMT5-MTA [1]) | IC50 (HCT116-WT)
1 nM | 24 nM | 275 nM | CNC(N)=Nc1ccc(C(=O)N(Cc2ccc(C(F)(F)F)cn2)c2cccc3cccnc23)cn1 [Compound 45, 6-((amino(methylamino)methylene)amino)-N-(quinolin-8-yl)-N-((5-(trifluoromethyl)pyridin-2-yl)methyl)nicotinamide] | – | – | –
1.5 nM | 454 nM | 2700 nM | CN/C(N)=N\c1ccc(C(=O)N(Cc2ccc(C(F)(F)F)cn2)C(C)c2ccc(F)cc2)cn1 (stereo not drawn) [Compound 118, (Z)-6-((amino(methylamino)methylene)amino)-N-(1-(4-fluorophenyl)ethyl)-N-((5-(trifluoromethyl)pyridin-2-yl)methyl)nicotinamide] | – | – | –
1 nM | 279 nM | 4000 nM | CNC(N)=Nc1ccc(C(=O)N(Cc2ccc(C(F)(F)F)cn2)C(C)C2CC2)cn1 (stereo not drawn) [Compound 33] | – | – | –
2.6 nM | 51 nM | 618 nM | CNC(N)=Nc1ccc(C(=O)N(Cc2ccc(C(F)(F)F)cn2)c2csc3cccnc23)cn1 [Compound 51] | – | – | –
0.7 nM | 60 nM | 867 nM | CNC(N)=Nc1ccc(C(=O)N(Cc2ccc(C(F)(F)F)cn2)C2CCOc3ccccc32)cn1 (stereo not drawn) [Compound 86] | – | – | –
1.6 nM | 134 nM | 1480 nM | CN/C(N)=N\c1ccc(C(=O)N(Cc2ccc(C(F)(F)F)cn2)C2CCc3cccnc32)cn1 (stereo not drawn) [Compound 92, (Z)-6-((amino(methylamino)methylene)amino)-N-(6,7-dihydro-5H-cyclopenta[b]pyridin-7-yl)-N-((5-(trifluoromethyl)pyridin-2-yl)methyl)nicotinamide] | – | – | –
1.4 nM | 28 nM | 769 nM | CNC(N)=Nc1ccc(C(=O)N(Cc2ccc(C(F)(F)F)cn2)C2CCCc3ccccc32)cn1 (stereo not drawn) [Compound 61] | – | – | –
2.6 nM | 36 nM | 844 nM | CN/C(N)=N\c1ccc(C(=O)N(Cc2ccc(C(C)(C)F)cn2)[C@H](C)c2ccccc2F)cn1 [Compound 75, (R,Z)-6-((amino(methylamino)methylene)amino)-N-(1-(2-fluorophenyl)ethyl)-N-((5-(2-fluoropropan-2-yl)pyridin-2-yl)methyl)nicotinamide] | – | – | –
